Assay results: patent publication US12473304B2, “Heterocyclic PAD4 inhibitors” (BRISTOL-MYERS SQUIBB COMPANY, priority 2020, dated 2025)

Target: human PAD4 (hPAD4) (Homo sapiens (Human), UniProt Q9UM07)
Test: RFMS Human PAD4 Functional Assay 1
Assay type: biochemical
Settings: RFMS assay 1; 5 nM hPAD4, 250 μM BAEE substrate, 50 μM calcium, 37° C.
In short: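 Recombinant hPAD4 (5 nM) was preincubated with compound (top 50 μM, 0.5% DMSO) for 30 min at 37 °C, then reacted with 250 μM BAEE for 90 min at 37 °C in pH 7.5 HEPES buffer with 50 μM calcium and 5 μM TPEN. Product was derivatized with phenyl glyoxal and quantified by RapidFire MS.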

human PAD4 (hPAD4), sequence (Q9UM07 whole entry): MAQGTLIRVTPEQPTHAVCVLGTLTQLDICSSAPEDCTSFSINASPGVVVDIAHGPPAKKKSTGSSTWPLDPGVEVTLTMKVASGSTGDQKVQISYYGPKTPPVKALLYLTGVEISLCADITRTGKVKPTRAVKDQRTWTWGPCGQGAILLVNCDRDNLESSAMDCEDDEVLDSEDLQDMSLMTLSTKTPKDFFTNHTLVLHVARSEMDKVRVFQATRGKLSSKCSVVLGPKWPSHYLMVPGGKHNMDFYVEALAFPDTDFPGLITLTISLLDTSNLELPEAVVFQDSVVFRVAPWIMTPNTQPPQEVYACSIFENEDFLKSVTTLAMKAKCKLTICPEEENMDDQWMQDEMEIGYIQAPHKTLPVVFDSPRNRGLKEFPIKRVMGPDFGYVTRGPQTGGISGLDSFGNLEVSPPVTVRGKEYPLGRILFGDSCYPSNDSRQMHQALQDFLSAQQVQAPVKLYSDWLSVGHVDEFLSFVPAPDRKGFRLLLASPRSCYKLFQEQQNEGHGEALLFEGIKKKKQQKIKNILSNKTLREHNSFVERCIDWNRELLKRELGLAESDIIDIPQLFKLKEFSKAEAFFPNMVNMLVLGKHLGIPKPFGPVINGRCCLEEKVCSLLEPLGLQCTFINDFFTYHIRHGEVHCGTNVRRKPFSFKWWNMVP

IC50 [nM] | SMILES
220 | COc1cc(C(=O)N2CCC[C@@H](N)C2)cn2nc(-c3cc4cccc(C5CN(C(=O)[C@H]6CC[C@@H](O)CC6)C5)c4n3CC3CC3)c(C)c12 [Example 520, ((R)-3-Aminopiperidin-1-yl)(2-(1-(cyclopropylmethyl)-7-(1-((1s,4s)-4-hydroxycyclohexane-1-carbonyl)azetidin-3-yl)-1H-indol-2-yl)-4-methoxy-3-methylpyrazolo[1,5-a]pyridin-6-yl)methanone]
400 | COc1cc(C(=O)N2CCC[C@@H](N)C2)cn2nc(-c3cc4cccc(C5CN(C(=O)[C@H](C)OC)C5)c4n3CC3CC3)c(C)c12 [Example 523, (S)-1-(3-(2-(6-((R)-3-Aminopiperidine-1-carbonyl)-4-methoxy-3-methylpyrazolo[1,5-a]pyridin-2-yl)-1-(cyclopropylmethyl)-1H-indol-7-yl)azetidin-1-yl)-2-methoxypropan-1-one]
280 | COc1cc(C(=O)N2C[C@H](N)C[C@@H](F)C2)cn2nc(-c3cc4cccc(C5CN(C(=O)[C@H](C)OC)C5)c4n3CC3CC3)c(C)c12 [Example 524, (S)-1-(3-(2-(6-((3R,5R)-3-Amino-5-fluoropiperidine-1-carbonyl)-4-methoxy-3-methylpyrazolo[1,5-a]pyridin-2-yl)-1-(cyclopropylmethyl)-1H-indol-7-yl)azetidin-1-yl)-2-methoxypropan-1-one]
90 | COc1cc(C(=O)N2CCC[C@@H](N)C2)cn2nc(-c3cc4cccc(C5CN(C(=O)[C@@H](C)OC)C5)c4n3CC3CC3)c(C)c12 [Example 525, (R)-1-(3-(2-(6-((R)-3-Aminopiperidine-1-carbonyl)-4-methoxy-3-methylpyrazolo[1,5-a]pyridin-2-yl)-1-(cyclopropylmethyl)-1H-indol-7-yl)azetidin-1-yl)-2-methoxypropan-1-one]
260 | COc1cc(C(=O)N2C[C@H](N)C[C@@H](F)C2)cn2nc(-c3cc4cccc(C5CN(C(=O)[C@@H](C)OC)C5)c4n3CC3CC3)c(C)c12 [Example 526, (R)-1-(3-(2-(6-((3R,5R)-3-Amino-5-fluoropiperidine-1-carbonyl)-4-methoxy-3-methylpyrazolo[1,5-a]pyridin-2-yl)-1-(cyclopropylmethyl)-1H-indol-7-yl)azetidin-1-yl)-2-methoxypropan-1-one]
50 | COCC(=O)N1CC(c2cccc3cc(-c4nn5cc(C(=O)N6C[C@H](N)C[C@@H](F)C6)cc(OC)c5c4C)n(CC4CC4)c23)C1 [Example 527, 1-(3-(2-(6-((3R,5R)-3-Amino-5-fluoropiperidine-1-carbonyl)-4-methoxy-3-methylpyrazolo[1,5-a]pyridin-2-yl)-1-(cyclopropylmethyl)-1H-indol-7-yl)azetidin-1-yl)-2-methoxyethan-1-one]
15000 | COCC(=O)N1CC(c2cccc3cc(-c4nn5cc(C(=O)N6CCC[C@@H](N)C6)cc(OC)c5c4C)n(CC4CC4)c23)C1 [Example 528, (R)-1-(3-(2-(6-(3-Aminopiperidine-1-carbonyl)-4-methoxy-3-methylpyrazolo[1,5-a]pyridin-2-yl)-1-(cyclopropylmethyl)-1H-indol-7-yl)azetidin-1-yl)-2-methoxyethan-1-one]
1530 | COCC(=O)N1CC(c2cccc3cc(-c4nn5cc(C(=O)N6CCC[C@@H](N)C6)cc(OC)c5c4C)n(CC4CC4)c23)C1 [Example 529, (R)-1-(3-(2-(6-(3-Aminopiperidine-1-carbonyl)-4-methoxy-3-methylpyrazolo[1,5-a]pyridin-2-yl)-1-(cyclopropylmethyl)-1H-indol-7-yl)azetidin-1-yl)-2-methoxyethan-1-one]
30 | Cc1c(-c2cc3cccc(C4CN(C(=O)[C@H]5CC[C@H](O)CC5)C4)c3n2CC2CC2)nn2cc(C(=O)N3CCC[C@@H](N)C3)ccc12 [Example 530, ((R)-3-Aminopiperidin-1-yl)(2-(1-(cyclopropylmethyl)-7-(1-((1r,4r)-4-hydroxycyclohexane-1-carbonyl)azetidin-3-yl)-1H-indol-2-yl)-3-methylpyrazolo[1,5-a]pyridin-6-yl)methanone]
580 | Cc1c(-c2cc3cccc(C4CN(C(=O)[C@@H]5CCC[C@H](O)C5)C4)c3n2CC2CC2)nn2cc(C(=O)N3C[C@H](N)C[C@@H](F)C3)ccc12 [Example 531, ((3R,5R)-3-Amino-5-fluoropiperidin-1-yl)(2-(1-(cyclopropylmethyl)-7-(1-((1R,3S)-3-hydroxycyclohexane-1-carbonyl)azetidin-3-yl)-1H-indol-2-yl)-3-methylpyrazolo[1,5-a]pyridin-6-yl)methanone]
1010 | Cc1c(-c2cc3cccc(C4CN(C(=O)[C@@H]5CCC[C@H](O)C5)C4)c3n2CC2CC2)nn2cc(C(=O)N3CCC[C@@H](N)C3)ccc12 [Example 532, ((R)-3-Aminopiperidin-1-yl)(2-(1-(cyclopropylmethyl)-7-(1-((1R,3S)-3-hydroxycyclohexane-1-carbonyl)azetidin-3-yl)-1H-indol-2-yl)-3-methylpyrazolo[1,5-a]pyridin-6-yl)methanone]
520 | Cc1c(-c2cc3cccc(C4CN(C(=O)[C@H]5CCC[C@@H](O)C5)C4)c3n2CC2CC2)nn2cc(C(=O)N3C[C@H](N)C[C@@H](F)C3)ccc12 [Example 533, ((3R,5R)-3-Amino-5-fluoropiperidin-1-yl)(2-(1-(cyclopropylmethyl)-7-(1-((1S,3R)-3-hydroxycyclohexane-1-carbonyl)azetidin-3-yl)-1H-indol-2-yl)-3-methylpyrazolo[1,5-a]pyridin-6-yl)methanone]
440 | Cc1c(-c2cc3cccc(C4CN(C(=O)[C@H]5CCC[C@@H](O)C5)C4)c3n2CC2CC2)nn2cc(C(=O)N3CCC[C@@H](N)C3)ccc12 [Example 534, ((R)-3-Aminopiperidin-1-yl)(2-(1-(cyclopropylmethyl)-7-(1-((1S,3R)-3-hydroxycyclohexane-1-carbonyl)azetidin-3-yl)-1H-indol-2-yl)-3-methylpyrazolo[1,5-a]pyridin-6-yl)methanone]
2520 | COC(C)(C)C(=O)N1CC(c2cccc3cc(-c4nn5cc(C(=O)N6CCC[C@@H](N)C6)ccc5c4C)n(CC4CC4)c23)C1 [Example 536, (R)-1-(3-(2-(6-(3-Aminopiperidine-1-carbonyl)-3-methylpyrazolo[1,5-a]pyridin-2-yl)-1-(cyclopropylmethyl)-1H-indol-7-yl)azetidin-1-yl)-2-methoxy-2-methylpropan-1-one]
70 | Cc1c(-c2cc3cccc(C4CN(C(=O)[C@H]5CC[C@H](O)CC5)C4)c3n2CC2CC2)nn2cc(C(=O)N3C[C@H](N)C[C@@H](F)C3)ccc12 [Example 537, ((3R,5R)-3-Amino-5-fluoropiperidin-1-yl)(2-(1-(cyclopropylmethyl)-7-(1-((1r,4r)-4-hydroxycyclohexane-1-carbonyl)azetidin-3-yl)-1H-indol-2-yl)-3-methylpyrazolo[1,5-a]pyridin-6-yl)methanone]
40 | Cc1c(-c2cc3cccc(C4CN(C(=O)[C@H]5CC[C@@H](O)CC5)C4)c3n2CC2CC2)nn2cc(C(=O)N3C[C@H](N)C[C@@H](F)C3)ccc12 [Example 538, ((3R,5R)-3-Amino-5-fluoropiperidin-1-yl)(2-(1-(cyclopropylmethyl)-7-(1-((1s,4s)-4-hydroxycyclohexane-1-carbonyl)azetidin-3-yl)-1H-indol-2-yl)-3-methylpyrazolo[1,5-a]pyridin-6-yl)methanone]
